The test system of the test is M. tuberculosis H37Rv growth inhibition. The test is described as follows: M. tuberculosis H37Rv growth inhibitors, H37Rv strain (AID 1626). Conditions: for IC90: measured here: IC90 against H37Rv; for CC50: measured here: Vero cell cytotoxicity.

Each structure is given as a SMILES string.

On to `COc1ccc(Cn2c(SCc3cc(C)ccc3C)nc3cc(OC)c(OC)cc3c2=N)cc1`, for which the IC50 (usually the point on the concentration scale where inhibition reaches its midpoint) was 2.59 µM; the IC90 (commonly the concentration at which the effect reaches the 90% level) stood at 2.83 µM; the CC50 (as a rule, the concentration giving 50% cytotoxicity) stood at 7.51 µM.

`CC1CCC(C(C)C)C(OC(=O)Cn2c(-c3ccc(F)cc3)[n+](C)c3ccccc32)C1` (configuration not stated): the IC50 is 6.98 µM and the IC90 was found to be 11.4 µM.

As for `COc1ccc(N2CCN(CC(=O)Nc3nc4c(s3)CC(C)CC4)CC2)cc1` (configuration not stated), the IC50 was 4.42 µM and the IC90 came to 49.1 µM.

`CSc1ccc(/C=C/C(=O)c2ccc(NC(=O)Cc3ccccc3)cc2)cc1`: the IC50 is 4.66 µM, the IC90 is more than 100 µM and the CC50 is more than 40 µM.

With `CN(C)CCCn1c(SCC(=O)Nc2nc(-c3cccc(Br)c3)cs2)nc2ccccc2c1=O`, the IC50 is 5.61 µM, the IC90 was found to be 5.96 µM and the CC50 was determined as 8.6 µM.

For `O=c1[nH]c2ccccc2n1CCCN1CCN(C(c2ccccc2)c2ccccc2)CC1`, the IC50 is 17.1 µM, the IC90 was determined as 25.3 µM and the CC50 was more than 40 µM.

Consider `COc1cnc(-c2ccccn2)nc1Sc1ccccc1Cl`, for which the IC50 is 1.94 µM, the IC90 is 6.23 µM and the CC50 was determined as 7.16 µM.

As to `Cc1cc(C)c2c(n1)sc1c(N3CCCCC3)ncnc12`, the IC50 is 16.7 µM and the IC90 is more than 100 µM.

On to `COC(=O)C(CC(C)C)NC(=O)/C=C/c1ccc(Cl)cc1` (configuration not stated), for which the IC50 was 3.88 µM and the IC90 was 6.5 µM.

As to `CCOC(=O)c1sc2nc(CSc3ccccc3)nc(N3CCCN(C)CC3)c2c1C`, the IC50 is 5.79 µM, the IC90 is 6.53 µM and the CC50 stood at 24.8 µM.

As for `Cc1ccc(C(=O)CC(=O)COc2ccc(Cl)cc2)cc1`, the IC50 is 6.66 µM, the IC90 is more than 100 µM and the CC50 is more than 40 µM.

As for `Cc1ccc2c(c1C)NC(=O)C21N2CCCC2C(C(=O)c2ccc3ccccc3c2)C12C(=O)Nc1ccccc12` (configuration not stated), the IC50 is 39.3 µM, the IC90 was more than 100 µM and the CC50 was more than 40 µM.

As for `CSc1nc(N(C)C)c2ccccc2n1`, the IC50 is 42.9 µM and the IC90 was more than 100 µM.

For `CCOC(=O)CSCC(=O)Nc1c(C(=O)C2CC2)oc2ccccc12`, the IC50 is 5.86 µM and the IC90 was found to be 9.32 µM.

With `CCOc1ccc(N=Cc2c(O)n(C(C)(C)C)c(=O)[nH]c2=O)cc1`, the IC50 was less than 0.195 µM and the IC90 is more than 100 µM.

With `NC1=NC[C@H](Cc2ccc(O)cc2)N1CCC12CC3CC(CC(C3)C1)C2`, the IC50 is 5.85 µM and the IC90 is 9.05 µM.

`CC1(C)CC(NC(=O)c2sc3cc(Cl)ccc3c2Cl)CC(C)(C)N1`: the IC90 was more than 100 µM and the CC50 worked out at 12.6 µM.

For the molecule `Cc1ccc(NCCC(=O)c2cccs2)cc1Cl`, the IC50 is 34.6 µM and the IC90 is more than 100 µM.

Take `Cc1cc(NCCCn2ccnc2)n2nc(C)c(-c3ccc(Cl)cc3)c2n1`: the IC50 was 4.03 µM, the IC90 came out at 5.75 µM and the CC50 was 12.9 µM.

Regarding `COc1cnc(-c2ccccn2)nc1Sc1ccc(F)cc1`, the IC50 is less than 0.195 µM, the IC90 is 12.9 µM and the half-maximal cytotoxic concentration (CC50) came out at 19.2 µM.

Regarding `Cc1cccc(OCc2nnc(SCC(=O)OC3CCCCC3)o2)c1`, the IC50 was 1.25 µM and the IC90 was 5.46 µM.

`O=C(CSC1=NCCS1)Nc1ccc2ccccc2c1` returned a 90% effect concentration (IC90) of more than 100 µM.

For `CCc1ccc(NC(=O)CSc2ccccn2)cc1`, the IC50 is 22.1 µM and the IC90 is more than 100 µM.

For `O=C(Nc1nc2ccccc2[nH]1)c1cc2ccccc2o1`, the half-inhibitory concentration (IC50) is 37.2 µM, the IC90 is more than 100 µM and the CC50 is more than 40 µM.

Regarding `COc1ccc(N=C2C(=O)N3c4c(cccc42)C(C)=CC3(C)C)cc1`, the IC90 was more than 100 µM.

For the molecule `O=C(CSc1ncnc2c1oc1ccccc12)OCc1ccccc1`, the IC50 was 7.79 µM and the IC90 is 26.8 µM.

Regarding `CC(=O)/C=C(\C)Nc1ccccc1O`, the IC50 is 0.992 µM, the IC90 worked out at 2.44 µM and the CC50 is more than 40 µM.

Take `COc1cccc(N2CCN(c3cnc4ccccc4n3)CC2)c1`: the IC50 is 25.3 µM and the IC90 is more than 100 µM.

In the case of `COc1ccc(NC(=O)CSc2ncn(-c3ccccc3)n2)cc1Cl`, the IC90 was more than 100 µM.

For the molecule `O=C(Nc1ccc(N2CCCCC2)c(Cl)c1)c1ccc(N2CCOCC2)c([N+](=O)[O-])c1`, the IC50 was 40.2 µM, the IC90 was more than 100 µM and the CC50 stood at 30 µM.

With `CCOc1ccc(NC(=O)N(C2CCCCCC2)C2CCN(C(C)=O)CC2)cc1`, the IC90 is more than 100 µM.

On to `O=C(CCc1nc(-c2cccs2)no1)Nc1cnc2ccccc2c1`, for which the IC90 was more than 100 µM.

In the case of `COC(=O)COc1ccc2c(=O)c(Oc3ccccc3)c(C)oc2c1`, the IC50 is 2.13 µM and the IC90 stood at 10 µM.

As to `Cc1nc2ncccn2c1-c1csc(Nc2ccc(N(C)C)cc2)n1`, the IC50 was 12.8 µM, the 90% effect concentration (IC90) came to 16 µM and the CC50 was 3.47 µM.

Consider `CC1CC(C)(C)Nc2ccc(N=O)cc21` (configuration not stated), for which the IC50 was 5.75 µM, the IC90 came out at 6.38 µM and the CC50 worked out at 6.76 µM.

Take `O=C(/C=C/Sc1ccccc1)c1ccc(Cl)cc1`: the IC50 was 6.43 µM, the IC90 is 11.2 µM and the CC50 worked out at 26.1 µM.

As to `O=C(c1ccc([N+](=O)[O-])s1)N1CCN(c2cccc(Cl)c2)CC1`, the IC50 was 9.2 µM, the IC90 was 12.8 µM and the CC50 turned out to be 31.6 µM.

`Cc1ccc2cc(/C=C/C(=O)c3ccco3)c(Cl)nc2c1`: the IC50 is 19.3 µM, the IC90 is more than 100 µM and the CC50 was more than 40 µM.

For `c1ccc(-c2nc(NCC3CCCO3)c3ccccc3n2)nc1` (configuration not stated), the IC50 is 3.11 µM, the IC90 stood at 3.21 µM and the CC50 was more than 40 µM.

Turning to `CN(C)c1ccc(NC(=O)Cn2cc3c(n2)CCCC3)cc1`, the IC50 is 13 µM and the IC90 worked out at 18.6 µM.

With `CCCCCCCCC/C(=N\O)c1ccccn1`, the IC50 is 1.55 µM, the IC90 was 1.68 µM and the CC50 was 13.2 µM.

With `CCCCCc1cc(=O)oc2c(C(CCN(CC)CC)c3ccc(N(C)C)cc3)c(OC)cc(OC)c12` (configuration not stated), the IC50 is 4.06 µM, the concentration for an effect of 90% (IC90) came out at 5.28 µM and the CC50 came out at 14.9 µM.

As for `c1ccc(-c2nc(N3CCCCCC3)nc(-n3ccnc3)n2)cc1`, the IC50 was 0.253 µM, the IC90 worked out at 1.9 µM and the CC50 amounted to 30 µM.

`O=[N+]([O-])c1cc2cccnc2c2ncccc12`: the IC50 was 1.4 µM, the IC90 was determined as 1.49 µM and the CC50 turned out to be 33 µM.

Regarding `Nc1nc(-c2cccc(Br)c2)cs1`, the IC50 was 23.8 µM and the IC90 was more than 100 µM.

Consider `O=C(/C=C/c1ccccc1)Oc1cccc2cccnc12`, for which the IC50 was 7.94 µM, the IC90 amounted to 9.54 µM and the CC50 was found to be 37.2 µM.

With `O=C(Cn1cnc2c(nnn2-c2ccccc2)c1=O)N1CCC(Cc2ccccc2)CC1`, the IC50 is 5.79 µM, the IC90 was found to be 6.58 µM and the CC50 was more than 40 µM.

`Cc1ccc(N=C/C(C(=O)C(F)(F)F)=C(\O)c2ccco2)cc1Cl` had an IC90 of more than 100 µM.

As to `O=C(CSc1nc2ccccc2[nH]1)N1c2ccccc2Sc2ccccc21`, the IC50 is 17.4 µM, the 90% effect concentration (IC90) was more than 100 µM and the CC50 was more than 40 µM.

`COC(=O)CSc1ccnc2cc(Cl)ccc12`: the IC50 is 4.25 µM and the IC90 turned out to be 12.3 µM.

For the molecule `CCCCOC(=O)Nc1ccc(C)c(Cl)c1`, the IC90 was more than 100 µM.

With `Cc1nc(-c2ccccn2)nc(SCC(=O)c2ccc(F)cc2)c1Cl`, the IC50 is 7.37 µM, the IC90 is 13.8 µM and the CC50 is more than 40 µM.

As for `CC(=O)Nc1ccc(NC(=O)c2ccc(C3SCC(=O)N3CCc3ccccc3)cc2)cc1` (configuration not stated), the IC90 was more than 100 µM.

In the case of `O=C(C[n+]1cc(-c2ccccc2)n2c1CCC2)Nc1nc(-c2ccc(F)cc2)cs1`, the IC50 was 19.9 µM and the IC90 came to 42.8 µM.

For the molecule `O=[N+]([O-])c1cc(Cl)c(O)c2ncccc12`, the IC50 was 16.3 µM, the IC90 is 24.7 µM and the CC50 turned out to be 21.7 µM.

With `CC(C)Nc1cc(C(F)(F)F)nc(-c2ccccn2)n1`, the IC50 was 5.17 µM and the IC90 was more than 100 µM.

For `O=C1OC(/C(=C\Nc2cc(Cl)ccc2O)[N+](=O)[O-])c2ccccc21` (configuration not stated), the IC50 is 57.2 µM, the IC90 was more than 100 µM and the CC50 was more than 40 µM.

For `CC(Oc1ccc(Cl)cc1Cl)c1nc(-c2ccc(NC(=O)c3ccncc3)cc2)no1` (configuration not stated), the IC50 is 33.5 µM, the IC90 is more than 100 µM and the CC50 was more than 40 µM.

With `Cc1ccc(-c2ccc(C3C(C#N)=C(N)Oc4n[nH]c(C)c43)o2)cc1` (configuration not stated), the IC50 was 2.37 µM, the IC90 was more than 100 µM and the CC50 is more than 40 µM.

On to `c1cnc2c(c1)ccc1cccnc12`, for which the IC50 was 4.46 µM, the IC90 is 8.17 µM and the CC50 was 3.98 µM.

On to `O=[N+]([O-])c1cc(-c2n[nH]c(-c3ccccc3)n2)cc([N+](=O)[O-])c1`, for which the IC50 is 28.4 µM, the IC90 was more than 100 µM and the CC50 was more than 40 µM.

Consider `COc1ccc(-c2n(CC(=O)OC3CC(C)CCC3C(C)C)c3ccccc3[n+]2C)cc1` (configuration not stated), for which the IC50 is 0.985 µM, the IC90 is 2.37 µM and the CC50 stood at 23.9 µM.

Take `CN1/C(=C\C(=O)c2cccs2)Sc2ccccc21`: the IC50 was 5.65 µM, the IC90 is 13.6 µM and the CC50 was more than 40 µM.

For `CCOC(=O)Oc1ccc2oc(C)c(C(=O)OCCOC)c2c1`, the IC50 was 26.1 µM and the IC90 is more than 100 µM.

As to `O=C(/C=C/c1cccc(Cl)c1)c1nc2ccccc2[nH]1`, the IC50 is 2.94 µM, the IC90 is 3.34 µM and the CC50 worked out at 15.3 µM.

As for `COc1ccc(CNC(=O)c2c(C)nc3ccccn23)cc1`, the IC50 is 1.77 µM and the IC90 was found to be 7.63 µM.

For `CCOC(=O)c1c(C)n(C)c2ccc(OC(C)C(=O)OC)cc12` (configuration not stated), the IC50 was 8.04 µM and the IC90 was determined as 14.4 µM.

These data come from PubChem BioAssay AID1626 (SRMLSC, 2009).
